From patent US20230094076A1, “COMBINATION THERAPY” (GlaxoSmithKline Intellectual Property Development Limited, priority 2016, published 2023)

Legend:
[1] = biological target: PRMT5/MEP50 (Homo sapiens, UniProt O14744); experiment: PRMT family radioactive assay; type: biochemical; settings: 60 minute SAM:Enzyme:Compound A preincubation
[2] = tested on: KASUMI-; settings: AML subtype M2, 6-day
Method: (§1) The growth of all cell lines was evaluated over time across a wide range of seeding densities to identify conditions that permitted proliferation throughout the entire 6-day assay. Cells were plated at the optimal seeding density and after overnight incubation, a 20-point 2-fold titration of compound was added and plates were incubated for 6 days. A replicate plate of cells was harvested at the time of compound addition to quantify the starting number of cells (T0). Values obtained after the 6 day treatment were expressed as a function of the T0 value and plotted against compound concentration. The T0 value was normalized to 100% and represents the number of cells at the time of compound addition. The data were fit with a 4 parameter equation to generate a concentration response curve and the growth IC50 (gIC50) was determined. The gIC50 is the midpoint of the ‘growth window’, the difference between the number of cells at the time of compound addition (To) and the number of cells after 6 days (DMSO control). The growth-death assay can be used to quantify the net population change, clearly defining cell death (cytotoxicity) as fewer cells compared to the number at the time of compound addition (T0).

[3] = tested on: TF-1; settings: TF-1, AML subtype M6, 6-day
Method: as §1

[4] = tested on: Lymphoma cell lines; settings: 59 cell lines
Method: as §1

[5] = tested on: Colon cancer cell lines; settings: percent of cell lines, 34 cell lines
Method: as §1

[6] = tested on: 786-O; settings: ccRCC, 6-day
Method: as §1

[7] = tested on: MOLM-13; settings: MOLM-13, AML subtype M5, 6-day
Method: as §1

[8] = tested on: G-402; settings: G-402, Leiomyoblastoma, 6-day
Method: as §1

[9] = tested on: SK-MEL-2; settings: SK-MEL-2, melanoma, 6-day
Method: as §1

[10] = tested on: G-401; settings: G-401, Wilm's, 6-day
Method: as §1

[11] = tested on: Kidney cancer cell lines; settings: percent of cell lines, 10 cell lines
Method: as §1

[12] = tested on: AML cell lines; settings: 10 cell lines
Method: as §1

[13] = tested on: SK-MEL-5; settings: SK-MEL-5, melanoma, 6-day
Method: as §1

[14] = tested on: 196 human cancer cell lines (Total); settings: percent of cell lines, 196 cell lines
Method: as §1

[15] = tested on: HT144; settings: HT144, melanoma, 6-day
Method: as §1

[16] = tested on: Breast cancer cell lines; settings: percent of cell lines, 29 cell lines
Method: as §1

[17] = tested on: COLO741; settings: COLO741, melanoma, 6-day
Method: as §1

[18] = tested on: SW156; settings: SW156, ccRCC, 6-day
Method: as §1

[19] = tested on: SHI-1; settings: SHI-1, AML subtype M5, 6-day
Method: as §1

[20] = tested on: ACHN; settings: ccRCC, 6-day
Method: as §1

[21] = tested on: MDA-MB-; settings: melanoma, 6-day
Method: as §1

[22] = tested on: SKM-1; settings: SKM-1, AML subtype M5, 6-day
Method: as §1

[23] = tested on: Bladder cancer cell lines; settings: 18 cell lines
Method: as §1

[24] = tested on: Prostate cancer cell lines; settings: 4 cell lines
Method: as §1

[25] = tested on: NOMO-1; settings: NOMO-1, AML subtype M5, 6-day
Method: as §1

[26] = tested on: IGR-1; settings: IGR-1, melanoma, 6-day
Method: as §1

[27] = tested on: CAKI-2; settings: CAKI-2, ccRCC, 6-day
Method: as §1

[28] = tested on: A498; settings: A498, ccRCC, 6-day
Method: as §1

[29] = tested on: Melanoma cell lines; settings: 7 cell lines
Method: as §1

[30] = tested on: 769-P; settings: ccRCC, 6-day
Method: as §1

[31] = tested on: A375; settings: A375, melanoma, 6-day
Method: as §1

[32] = biological target: PRMT8 (Homo sapiens, UniProt Q9NR22); experiment: PRMT family radioactive assay; type: biochemical
Sequence of PRMT8 (Q9NR22 whole entry): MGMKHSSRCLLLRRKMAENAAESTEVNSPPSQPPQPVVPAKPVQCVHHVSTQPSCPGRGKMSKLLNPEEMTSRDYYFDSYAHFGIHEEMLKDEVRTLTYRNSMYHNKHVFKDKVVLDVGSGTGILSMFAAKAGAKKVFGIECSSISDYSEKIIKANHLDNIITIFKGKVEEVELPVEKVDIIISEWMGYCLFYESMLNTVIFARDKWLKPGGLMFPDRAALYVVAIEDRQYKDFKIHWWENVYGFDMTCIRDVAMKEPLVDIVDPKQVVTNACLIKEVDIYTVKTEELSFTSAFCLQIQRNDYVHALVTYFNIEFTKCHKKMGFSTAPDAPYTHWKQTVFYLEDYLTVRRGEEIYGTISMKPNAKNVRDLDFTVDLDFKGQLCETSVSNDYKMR

Sequence of PRMT5/MEP50 (O14744 whole entry): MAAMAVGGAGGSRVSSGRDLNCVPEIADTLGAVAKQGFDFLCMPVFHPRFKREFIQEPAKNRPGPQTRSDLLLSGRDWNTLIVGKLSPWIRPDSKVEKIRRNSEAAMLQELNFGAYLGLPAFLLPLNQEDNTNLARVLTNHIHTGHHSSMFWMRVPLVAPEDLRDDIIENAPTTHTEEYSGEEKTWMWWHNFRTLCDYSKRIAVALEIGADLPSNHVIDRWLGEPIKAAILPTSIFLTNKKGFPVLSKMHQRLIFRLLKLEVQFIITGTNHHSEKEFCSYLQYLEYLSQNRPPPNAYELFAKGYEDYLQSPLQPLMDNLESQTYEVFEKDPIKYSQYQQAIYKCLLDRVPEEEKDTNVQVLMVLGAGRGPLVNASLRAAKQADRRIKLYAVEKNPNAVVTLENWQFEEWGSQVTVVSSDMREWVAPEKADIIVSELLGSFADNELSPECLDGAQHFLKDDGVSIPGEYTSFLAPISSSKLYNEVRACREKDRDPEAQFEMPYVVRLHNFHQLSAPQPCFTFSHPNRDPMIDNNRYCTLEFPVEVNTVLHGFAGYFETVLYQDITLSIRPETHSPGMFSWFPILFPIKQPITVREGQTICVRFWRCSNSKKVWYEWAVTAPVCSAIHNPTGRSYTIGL
Sequence of PRMT5/MEP50 (Q9BQA1 whole entry partner): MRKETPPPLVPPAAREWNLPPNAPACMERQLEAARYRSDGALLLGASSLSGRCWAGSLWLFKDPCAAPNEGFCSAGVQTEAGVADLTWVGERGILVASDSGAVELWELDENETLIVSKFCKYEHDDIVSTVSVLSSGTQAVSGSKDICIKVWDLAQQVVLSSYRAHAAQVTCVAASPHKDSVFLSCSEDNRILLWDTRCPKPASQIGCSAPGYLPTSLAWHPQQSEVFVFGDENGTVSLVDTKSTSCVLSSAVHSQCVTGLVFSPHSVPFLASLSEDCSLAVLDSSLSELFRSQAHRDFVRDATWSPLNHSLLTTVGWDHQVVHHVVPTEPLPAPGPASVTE

## CCOCC1(COCC)CCC(c2n[nH]cc2CN(C)CCNC)CC1 [Compound A]
[1]
  inhibition of activity: failed to inhibit
[2]
  gIC100: 18.88 ± 10.55 µM
[2]; negative = cell death
  Ymin − T0: −17.7
[3]
  gIC100: 29.33 ± 0.00 µM
[3]; negative = cell death
  Ymin − T0: 788.1
[4]; 6-day proliferation
  Median gIC100: 21.62 µM
[4]; percent of cell lines
  % Cytotoxic: 54%
  % gIC100 < 2: 14%
[5]
  % Cytotoxic: 3%
  % gIC100 < 2: 0%
[6]
  Ymin − T0: 643.7
[7]
  gIC100: 8.64 ± 0.39 µM
[7]; negative = cell death
  Ymin − T0: −100.0
[8]
  Ymin − T0: 92.6
[9]
  Ymin − T0: 35.9
  gIC100: 22.37 µM
[10]
  Ymin − T0: 353.7
[11]
  % Cytotoxic: 0%
  % gIC100 < 2: 0%
[12]; 6-day proliferation assay
  number of cell lines with induced cytotoxicity: 5
[12]; percent of cell lines
  % Cytotoxic: 50%
  % gIC100 < 2: 0%
[13]
  Ymin − T0: 31.8
  gIC100: 27.09 ± 3.92 µM
[14]
  % gIC100 < 2: 4%
[15]
  Ymin − T0: 124.9
  gIC100: 29.33 ± 0.00 µM
[16]
  % Cytotoxic: 10%
  % gIC100 < 2: 0%
[17]
  Ymin − T0: 12.5
  gIC100: 28.55 ± 1.40 µM
[18]
  Ymin − T0: 346.7
[19]
  gIC100: 29.33 ± 0.02 µM
[19]; negative = cell death
  Ymin − T0: 292.0
[20]
  Ymin − T0: 96.5
[21]
  Ymin − T0: 19.1
  gIC100: 29.33 ± 0.00 µM
[22]
  gIC100: 11.61 ± 5.52 µM
[22]; negative = cell death
  Ymin − T0: −19.1
[23]; 6-day proliferation
  Median gIC100: 29.33 µM
[23]; percent of cell lines
  % Cytotoxic: 0%
  % gIC100 < 2: 0%
[24]; 6-day proliferation
  Median gIC100: 29.34 µM
[24]; percent of cell lines
  % Cytotoxic: 0%
  % gIC100 < 2: 0%
[25]
  gIC100: 29.33 ± 0.00 µM
[25]; negative = cell death
  Ymin − T0: 259.1
[26]
  Ymin − T0: 507.0
  gIC100: 29.33 ± 0.00 µM
[27]
  Ymin − T0: 169.6
[28]
  Ymin − T0: 313.4
[29]; 6-day proliferation
  Median gIC100: 29.33 µM
[29]; percent of cell lines
  % Cytotoxic: 0%
  % gIC100 < 2: 0%
[30]
  Ymin − T0: 119.0
[31]
  Ymin − T0: 91.9
  gIC100: 29.33 ± 0.00 µM
[32]; 60 minute SAM:Enzyme:Compound A preincubation
  inhibition of activity: inhibited the activity
[32]; increasing preincubation times
  time dependence of inhibition: time dependent inhibitor
